{"source": "patent US7253299B2", "about": "“Process for purifying n2-(1(s)-ethoxycarbonyl-3-phenylpropyl)-n6-thifluoroacetyl-l-lysine” (Kaneka Corporation, priority 2001, dated 2007)", "test": "Solubility of polymorphs in water/acetonitrile mixed solvent (saturated solution, HPLC)", "format": "physicochemical", "conditions": "water/acetonitrile mixed solvent (water/acetonitrile volume ratio 0.25), 15° C., ordinary pressure", "experimental": "A 50 ml four-neck flask was charged with 30 ml of a water/acetonitrile mixed solvent (water/acetonitrile volume ratio 0.25). After cooling the solvent to 5° C. with stirring, 5 g of each of polymorphs (I form, […] and […]) of N^2-(1(S)-ethoxycarbonyl-3-phenylpropyl)-N^6-trifluoroacetyl-L-lysine was added thereto, and the temperature was elevated to a predetermined temperature at a rate of 10° C./hour. After reaching the predetermined temperature, the solution was maintained at that temperature for about 1 hour. A sample of the resulting saturated solution was taken out, and the concentration (% by weight) of N^2-(1(S)-ethoxycarbonyl-3-phenylpropyl)-N^6-trifluoroacetyl-L-lysine was measured by HPLC analysis to determine the solubility at that temperature."}
{"molecule": "CCOC(=O)[C@H](CCc1ccccc1)N[C@@H](CCCCNC(=O)C(F)(F)F)C(=O)O", "note": "[III form, N^2-(1(S)-ethoxycarbonyl-3-phenylpropyl)-N^6-trifluoroacetyl-L-lysine]", "values": [{"measurement": "solubility", "value": "about 3.1 % by weight"}]}
{"molecule": "CCOC(=O)[C@H](CCc1ccccc1)N[C@@H](CCCCNC(=O)C(F)(F)F)C(=O)O", "note": "[I form, N^2-(1(S)-ethoxycarbonyl-3-phenylpropyl)-N^6-trifluoroacetyl-L-lysine]", "values": [{"measurement": "solubility", "value": "about 2.5 % by weight"}]}
{"molecule": "CCOC(=O)[C@H](CCc1ccccc1)N[C@@H](CCCCNC(=O)C(F)(F)F)C(=O)O", "note": "[II form, N^2-(1(S)-ethoxycarbonyl-3-phenylpropyl)-N^6-trifluoroacetyl-L-lysine]", "values": [{"measurement": "solubility", "value": "about 2.7 % by weight"}]}
